Measured values: patent US8809314B1, “Cephalosporin compound” (Cubist Pharmaceuticals, Inc., priority 2012, dated 2014)
Converted amounts (≈) assume the structure as drawn.

What was measured:
[1] = tested on: Pseudomonas aeruginosa (n = 100); assay: MIC90, expanded MIC panel (Table 4); type: cell-based; settings: 100 Pa strains
Experimental: II. […] MIC90 values were defined as the concentration required to inhibit growth of 90% of the strains tested. • C. SAR was performed using the following isolates: Sa399 (ATCC43300, MRSA), Sa1721 (NARSA NRS384, MRSA USA 300), Pa44 (ATCC27853), and 4 clinical isolates (Pa2241, Pa2086 (mucoid strain), Pa2694 and Pa2698). • D. The in vitro antibacterial activity of the compound of formula (I) was further evaluated in an expanded MRSA and Pa MIC panel (see Table 4 and FIG. 6).

[2] = tested on: methicillin-resistant Staphylococcus aureus (MRSA); assay: MIC measured by the method of Example 3; type: cell-based; settings: strain not named, read-out: MIC against methicillin-resistant Staphylococcus aureus (MRSA)
Experimental: (§1) To prepare for MIC testing, individual colonies were isolated by streaking frozen glycerol material containing Staphylococcus or Pseudomonas spp. onto rich, non-selective, tryptic soy agar containing 5% sheep's blood (TSAB), and incubated at 37° C. for 18-24 hrs.
(§2) On the day of testing, primary cultures were started by scraping off 5-10 colonies from the TSAB plates. The material was suspended in ˜5 mL of cation adjusted Mueller Hinton Broth (CAMHB) in 14 mL culture tubes and incubated at 37° C. with aeration (200 rpm) for ˜2 hrs until the OD600 was ≧0.1.
(§3) Inoculum cultures were prepared by standardizing the primary cultures to OD600=0.1 and then adding 20 μL of the adjusted primary culture per 1 mL CAMHB for Pseudomonas and CAMHB plus 4% NaCl for MRSA so that the final inoculum density was ˜10^5 colony forming units per milliliter. Diluted inoculum cultures were used to inoculate 50 μL per well in 96 well broth microdilution assay plates. […]
(§4) Plates were incubated for 18-20 hours at 37° C. with aeration (200 rpm). Following incubation, growth was confirmed visually placing plates over a viewing apparatus (stand with a mirror underneath) and then OD600 was measured using a SpectraMax 340PC384 plate reader (Molecular Devices, Sunnyvale, Calif.). Growth was defined as turbidity that could be detected with the naked eye or achieving minimum OD600 of 0.1. […]

Pseudomonas aeruginosa = assay: MIC measured by the method of Example 3; type: cell-based; settings: strain not named, read-out: MIC against Pseudomonas aeruginosa
Experimental: as §1, §2, §3, §4

Kpn #573 = assay: MIC in MHB by standard CLSI microdilution (Example 4); type: cell-based; settings: Klebsiella pneumoniae; Kpn #573; read-out: MIC
Description: (§5) II. Methods • A. Animals: Six week-old, specific pathogen free, female CD-1 mice purchased from Charles River Laboratories (Wilmington, Mass.) were used for all studies after acclimation in Cubist animal facility. All animal procedures were approved by the Cubist Institutional Animal Care and Use Committee. • B. Bacteria and In Vitro Susceptibility Testing: MRSA #712, Pseudomonas aeruginosa #2245 and #2545, and Klebsiella pneumoniae #573 are clinical isolates; Pseudomonas aeruginosa #44 is an ATCC strain (ATCC#27853). MIC was determined in MHB by standard CLSI microdilution. Comparator Antibiotics Used in Animal Studies: Vancomycin hydrochloride USP was purchased from Hospira (Lake Forest, Ill.); ceftazidime hydrate from Sigma; Primaxin (imipenem and cilastatin) from Merck; ceftaroline was synthesized at a CRO. • D. Mouse Septicemia: Mice received lethal inocula of bacteria in 6% hog gastric mucin intraperitoneally (IP), followed by two treatment doses of antibiotics via subcutaneous (SC) administration at 1 and 6 hrs post-inoculation. The survival of animals was recorded daily for 7 days. The antibiotic dose calculated to protect 50% of the mice (PD50) was derived based on probit analysis of percentage survival. • E. Mouse Thigh and Lung Infections: Mice were rendered neutropenic by two IP injections of cyclophosphamide 4 days (150 mg/kg) and 1 day (100 mg/kg) before bacterial inoculation. Thigh or lung infection was induced by an intramuscular injection of 0.2 mL or intranasal inoculation of 0.1 mL inoculum preparation from an overnight bacterial culture into left thigh or nares. Tissues from one group of mice receiving no treatment (No Rx) were harvested at 1 hr for determination of baseline of bacterial burden. The remaining mice received two treatment doses of vehicles or antibiotics given SC at 1 and 6 hrs post-inoculation. Tissues from the treated mice were harvested at ˜24 hrs post-inoculation. Tissue bacterial burdens were quantified by serial dilution and spiral plating of homogenates.

Pa #2545 = assay: as above; type: cell-based; settings: Pseudomonas aeruginosa
Description: as §5

Pa #44 (ATCC27853) = assay: as above; type: cell-based; settings: Pseudomonas aeruginosa
Description: as §5

MRSA #712 [3] = assay: as above; type: cell-based; settings: Staphylococcus aureus; MRSA #712; read-out: MIC
Description: as §5

[4] = tested on: ceftazidime-resistant Pseudomonas aeruginosa #2545; type: in vivo; settings: Pa #2545; CD-1 mice, IP inoculum, 2 SC doses at 1 and 6 hrs, 7 day survival
Experimental: (§6) In vivo efficacy of (I) was evaluated against strains of MRSA, and ceftazidime-resistant Pa and Klebsiella pneumonia (Kpn) in mouse septicemia, thigh and lung infections. Septicemia: CD-1 mice received lethal bacterial inocula IP, followed by 2 doses of antibiotics SC at 1 and 6 hrs post-inoculation. Dose calculated to protect 50% of the mice (PD50) was derived based on probit analysis of percentage survival. Thigh and lung infections: Thighs or lungs of neutropenic mice were inoculated with MRSA or Pa. Two treatment doses were given SC at 1 and 6 hrs post-inoculation. Tissues were harvested at ˜24 hrs post-inoculation and bacterial burdens quantified.
(§7) II. Methods • A. Animals: Six week-old, specific pathogen free, female CD-1 mice purchased from Charles River Laboratories (Wilmington, Mass.) were used for all studies after acclimation in Cubist animal facility. […] MIC was determined in MHB by standard CLSI microdilution. […] The survival of animals was recorded daily for 7 days. The antibiotic dose calculated to protect 50% of the mice (PD50) was derived based on probit analysis of percentage survival. • E. Mouse Thigh and Lung Infections: Mice were rendered neutropenic by two IP injections of cyclophosphamide 4 days (150 mg/kg) and 1 day (100 mg/kg) before bacterial inoculation. […] Tissue bacterial burdens were quantified by serial dilution and spiral plating of homogenates.

MRSA #712 [5] = assay: Mouse septicemia (systemic infection), PD50; type: in vivo, Staphylococcus aureus; settings: CD-1 mice, IP inoculum, 2 SC doses at 1 and 6 hrs, 7 day survival
Experimental: as §6
as §7, with “II.” for “II. Methods • A. Animals: Six week-old, specific pathogen free, female CD-1 mice purchased from Charles River Laboratories (Wilmington, Mass.) were used for all studies after acclimation in Cubist animal facility.”
(§8) III. […] The dose that protected 50% of the mice (PD50) was calculated by probit analysis based on percentage of mice surviving for 7 days post-inoculation. • C. […]

[6] = tested on: Pseudomonas aeruginosa #44 (ATCC#27853); assay: Mouse septicemia (systemic infection), PD50; type: in vivo; settings: Pa #44 (ATCC27853); CD-1 mice, IP inoculum, 2 SC doses at 1 and 6 hrs, 7 day survival
Experimental: as §6
II. Methods • A. Animals: Six week-old, specific pathogen free, female CD-1 mice purchased from Charles River Laboratories (Wilmington, Mass.) were used for all studies after acclimation in Cubist animal facility. All animal procedures were approved by the Cubist Institutional Animal Care and Use Committee. • B. Bacteria and In Vitro Susceptibility Testing: MRSA #712, Pseudomonas aeruginosa #2245 and #2545, and Klebsiella pneumoniae #573 are clinical isolates; Pseudomonas aeruginosa #44 is an ATCC strain (ATCC#27853). MIC was determined in MHB by standard CLSI microdilution. […] The survival of animals was recorded daily for 7 days. The antibiotic dose calculated to protect 50% of the mice (PD50) was derived based on probit analysis of percentage survival. • E. Mouse Thigh and Lung Infections: Mice were rendered neutropenic by two IP injections of cyclophosphamide 4 days (150 mg/kg) and 1 day (100 mg/kg) before bacterial inoculation. […] Tissue bacterial burdens were quantified by serial dilution and spiral plating of homogenates.
as §8

For CO/N=C(\C(=O)N[C@@H]1C(=O)N2C(C(=O)[O-])=C(C[n+]3ccc(N)c(NC(=O)Nc4ccc(CCNC(=N)N)cc4)c3)CS[C@H]12)c1nc(N)sc1Cl [(I)], the MIC90 [1] was 8 µg/mL (≈ 10.8 µM), the MIC [2] was 1 to 2 µg/mL (≈ 1.35 to 2.69 µM) and the MIC (Pseudomonas aeruginosa) was 1 to 2 µg/mL (≈ 1.35 to 2.69 µM). It also gave an MIC (Kpn #573) of 1 µg/mL (≈ 1.35 µM), an MIC (Pa #2545) of 2 µg/mL (≈ 2.69 µM) and an MIC (Pa #44 (ATCC27853)) of 1 µg/mL (≈ 1.35 µM). For the same compound, the MIC (MRSA #712 [3]) was 2 µg/mL (≈ 2.69 µM), the “Septicemia PD50 (± SE)” value [4] was <10.4 mg/kg and the “Septicemia PD50 (± SE)” value (MRSA #712 [5]) was 2.0 ± 0.3 mg/kg. The “Septicemia PD50 (± SE)” value [6] was 5.3 ± 0.7 mg/kg.
